Test results: BindingDB's records for doi:10.1021/jm070166b (Merck Research Laboratories, 2007)

Experiment: Antagonist activity against human CCR2 receptor in human monocytes assessed as inhibition of chemotaxis

## C[C@H]1CN([C@@H]2CC[C@H](C(=O)NCc3cc(C(F)(F)F)cc(C(F)(F)F)c3)C2)CC[C@@]12C=Cc1ccccc12 [(1S,3R)-N-{[3,5-bis(trifluoromethyl)phenyl]methyl}-3-[(1R,5'R)-5'-methylspiro[indene-1,4'-piperidine]-1'-yl]cyclopentane-1-carboxamide]
  IC50: 57 nM
